Assay [1] deals with T1, FGFR3 (V555M) (Homo sapiens, UniProt P22607, V555M).
T1 construct: made in house; host or cells: E. coli host derived from BL21, infected with T7 phage
Briefly: Kinase binding assay (Kd), FGFR3 (V555M). As to conditions: 11-point 3-fold dilution, qPCR readout. The procedure, abridged:
(§1)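 Kinases expressed as T7 phage fusions are mixed with ligand-coated magnetic beads and compound (0.9% DMSO), then shaken 1 h at room temperature. After washing, bound kinase is eluted with free ligand for 30 min and measured by qPCR; Kd is obtained by Hill-equation fitting.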

Assay [2] deals with RT112/84 cells (Bladder Cancer, FGFR3-TACC3 fusion). The assay is described as follows: Cancer cell line cell viability assay, RT112/84. It counts as cell-based. As to conditions: Homo sapiens, 72 hours, Cell Titer-Glo 2.0, read-out: Cancer Cell Viability Assays RT112/84 (IC50 nM). The text has this: (§2) [table] To detect the change of intracellular ATP by Cell Titer-Glo® and to evaluate the inhibitory effect of the compounds on cancer cell lines by determining the in vitro IC50 value of the compounds. Cell Titer-Glo® 2.0 Luminescent cell viability assay reagent was purchased from Promega (Madison, Wis.). RT112/84, SNU-16, and KG-1 cell lines were purchased from American Type Culture Collection (Manassas, Va.). UM-UC-14 cell line was purchased from Sigma (St. Louis, Mo.). RT112/84, UM-UC-14, SNU-16, and KG-1 cells were cultured in RPMI1640 media supplemented with 10% fetal bovine serum. Cultures were maintained at 37° C. in a humidified atmosphere of 5% CO2 and 95% air. Cell Viability Assay Procedure: Cells were plated in 96-well clear bottom/white plates (Corning #3903) at 10,000 cells/well in 100 μl of media, incubated overnight. The next day, test compound DMSO stock solutions were made at 10 mM and 2 μM final concentration. Compounds were then added to cells in a 9-dose, […] dilution series starting at 30 μM with an HP 300e Digital Dispenser (each dose was applied in triplicate). DMSO was backfilled to each well up to 301 nL total volume of test compound+DMSO, and a total of 301 nL DMSO was added to a control/no test compound well in triplicate. The cells in cell culture plates were incubated with the compounds at 37° C. and 5% CO2 for 72 hours. Then 50 μl of Cell Titer Glo 2.0 reagent was added to each well of the cell culture plates. The contents were covered from light and mixed on an orbital shaker at room temperature for 10 min. Luminescence was recorded by a Synergy H1 Microplate Reader (Biotek, Winooski, Vt.). Cells were assessed as a percentage of DMSO only treated control cells. Curves were plotted and IC50 values were calculated using the GraphPad Prism 8 program based on a sigmoidal dose-response equation (4 parameter).
In general terms: In ATP-based viability assays light output follows the ATP content of the culture.

Assay [3] addresses T2, FGFR2 (Homo sapiens, UniProt P21802).
T2 construct: made in house; host or cells: E. coli host derived from BL21, infected with T7 phage
Briefly: Kinase binding assay (Kd), FGFR2. As to conditions: 11-point 3-fold dilution, qPCR readout. Summed up:
as §1
(Quantitative PCR measures a nucleic acid by following its amplification.)

Assay [4] concerns the target T3, FGFR3 (Homo sapiens, UniProt P22607).
T3 construct: made in house; host or cells: E. coli host derived from BL21, infected with T7 phage
The assay is described as follows: Kinase binding assay (Kd), FGFR3. As to conditions: 11-point 3-fold dilution, qPCR readout. The procedure, abridged: as §1

Assay [5] has as its target T4, FGFR4 (Homo sapiens, UniProt P22455).
T4 construct: made in house; host or cells: E. coli host derived from BL21, infected with T7 phage
Briefly: Kinase binding assay (Kd), FGFR4. The note with it: 11-point 3-fold dilution, qPCR readout. The procedure, abridged: as §1

The target in assay [6] is T5, FGFR1 (Homo sapiens, UniProt P11362).
T5 construct: made in house; host or cells: E. coli host derived from BL21, infected with T7 phage
The assay is described as follows: Kinase binding assay (Kd), FGFR1. As to conditions: 11-point 3-fold dilution, qPCR readout. The procedure, abridged: as §1

Assay [7] deals with SNU-16 cells (Gastric Carcinoma, FGFR2 amplification). Briefly: Cancer cell line cell viability assay, SNU-16. It counts as cell-based. The note with it: Homo sapiens, 72 hours, Cell Titer-Glo 2.0, read-out: Cancer Cell Viability Assays SNU-16 (IC50 nM).
Text: as §2

For orientation: Kd means the equilibrium constant for the complex coming apart. A low value points to higher affinity.

Each structure is given as a SMILES string.

T2 sequence (P21802 22-821): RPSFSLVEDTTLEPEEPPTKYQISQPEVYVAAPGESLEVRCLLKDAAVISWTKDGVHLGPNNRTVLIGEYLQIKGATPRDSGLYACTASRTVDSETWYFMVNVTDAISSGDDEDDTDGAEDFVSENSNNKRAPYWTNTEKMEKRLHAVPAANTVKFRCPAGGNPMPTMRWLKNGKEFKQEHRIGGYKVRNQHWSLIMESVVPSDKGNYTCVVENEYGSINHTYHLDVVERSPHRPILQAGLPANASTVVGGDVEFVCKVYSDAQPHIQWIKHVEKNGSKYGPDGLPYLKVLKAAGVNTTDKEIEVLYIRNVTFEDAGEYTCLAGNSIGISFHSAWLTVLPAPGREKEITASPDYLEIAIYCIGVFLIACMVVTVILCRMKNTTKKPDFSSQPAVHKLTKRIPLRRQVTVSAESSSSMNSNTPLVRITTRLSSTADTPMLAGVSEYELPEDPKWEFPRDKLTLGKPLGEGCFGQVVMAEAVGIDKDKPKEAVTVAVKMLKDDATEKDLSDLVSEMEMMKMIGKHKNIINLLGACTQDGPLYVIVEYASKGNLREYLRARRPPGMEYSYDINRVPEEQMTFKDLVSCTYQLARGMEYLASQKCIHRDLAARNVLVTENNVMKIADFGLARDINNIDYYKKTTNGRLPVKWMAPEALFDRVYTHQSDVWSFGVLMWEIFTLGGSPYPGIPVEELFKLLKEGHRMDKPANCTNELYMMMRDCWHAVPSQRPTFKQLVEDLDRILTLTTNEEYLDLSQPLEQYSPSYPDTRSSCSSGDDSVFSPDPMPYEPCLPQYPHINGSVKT
T1 sequence (P22607 23-806 V555M): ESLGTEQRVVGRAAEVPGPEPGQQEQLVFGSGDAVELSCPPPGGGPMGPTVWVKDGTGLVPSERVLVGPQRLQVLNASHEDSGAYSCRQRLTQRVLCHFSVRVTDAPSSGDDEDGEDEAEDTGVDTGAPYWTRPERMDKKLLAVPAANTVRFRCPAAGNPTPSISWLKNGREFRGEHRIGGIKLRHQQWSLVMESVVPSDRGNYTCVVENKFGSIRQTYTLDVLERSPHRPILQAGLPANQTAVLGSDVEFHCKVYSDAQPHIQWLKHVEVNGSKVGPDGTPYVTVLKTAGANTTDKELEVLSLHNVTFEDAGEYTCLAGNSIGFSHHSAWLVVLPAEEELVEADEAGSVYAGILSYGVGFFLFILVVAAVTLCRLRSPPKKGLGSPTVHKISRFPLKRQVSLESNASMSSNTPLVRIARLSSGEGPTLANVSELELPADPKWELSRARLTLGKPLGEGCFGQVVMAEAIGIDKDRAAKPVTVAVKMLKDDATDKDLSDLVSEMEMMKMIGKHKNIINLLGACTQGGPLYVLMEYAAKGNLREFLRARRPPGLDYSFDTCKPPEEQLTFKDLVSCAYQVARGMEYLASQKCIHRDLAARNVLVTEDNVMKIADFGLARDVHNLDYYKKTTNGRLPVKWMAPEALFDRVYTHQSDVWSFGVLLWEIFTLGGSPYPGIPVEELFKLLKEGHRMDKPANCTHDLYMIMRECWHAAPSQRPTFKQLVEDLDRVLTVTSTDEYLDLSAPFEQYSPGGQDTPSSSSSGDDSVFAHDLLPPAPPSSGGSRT
T3 sequence (P22607 23-806): as the sequence (P22607 23-806 V555M) above, with M533V counted along it
T5 sequence (P11362 22-822): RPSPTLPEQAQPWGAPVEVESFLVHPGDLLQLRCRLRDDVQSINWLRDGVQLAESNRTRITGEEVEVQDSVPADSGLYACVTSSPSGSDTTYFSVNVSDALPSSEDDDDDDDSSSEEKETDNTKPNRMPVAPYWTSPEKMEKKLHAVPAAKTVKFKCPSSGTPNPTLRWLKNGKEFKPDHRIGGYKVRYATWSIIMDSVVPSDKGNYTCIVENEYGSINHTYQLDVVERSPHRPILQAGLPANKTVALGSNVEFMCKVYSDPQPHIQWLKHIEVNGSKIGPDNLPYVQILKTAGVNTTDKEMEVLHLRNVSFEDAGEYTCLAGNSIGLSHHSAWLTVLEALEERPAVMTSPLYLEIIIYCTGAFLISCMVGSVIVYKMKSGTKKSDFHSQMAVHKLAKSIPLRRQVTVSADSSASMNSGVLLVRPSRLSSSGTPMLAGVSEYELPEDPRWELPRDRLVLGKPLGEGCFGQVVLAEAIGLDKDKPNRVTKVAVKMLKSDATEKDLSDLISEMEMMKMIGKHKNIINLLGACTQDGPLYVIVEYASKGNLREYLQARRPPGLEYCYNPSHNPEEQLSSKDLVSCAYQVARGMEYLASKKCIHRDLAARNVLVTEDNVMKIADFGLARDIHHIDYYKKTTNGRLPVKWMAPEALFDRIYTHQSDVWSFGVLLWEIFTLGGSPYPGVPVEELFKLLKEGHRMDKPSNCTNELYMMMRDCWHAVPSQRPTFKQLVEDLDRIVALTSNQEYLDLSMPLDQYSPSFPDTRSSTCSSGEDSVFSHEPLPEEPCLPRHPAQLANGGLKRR
T4 sequence (P22455 22-802): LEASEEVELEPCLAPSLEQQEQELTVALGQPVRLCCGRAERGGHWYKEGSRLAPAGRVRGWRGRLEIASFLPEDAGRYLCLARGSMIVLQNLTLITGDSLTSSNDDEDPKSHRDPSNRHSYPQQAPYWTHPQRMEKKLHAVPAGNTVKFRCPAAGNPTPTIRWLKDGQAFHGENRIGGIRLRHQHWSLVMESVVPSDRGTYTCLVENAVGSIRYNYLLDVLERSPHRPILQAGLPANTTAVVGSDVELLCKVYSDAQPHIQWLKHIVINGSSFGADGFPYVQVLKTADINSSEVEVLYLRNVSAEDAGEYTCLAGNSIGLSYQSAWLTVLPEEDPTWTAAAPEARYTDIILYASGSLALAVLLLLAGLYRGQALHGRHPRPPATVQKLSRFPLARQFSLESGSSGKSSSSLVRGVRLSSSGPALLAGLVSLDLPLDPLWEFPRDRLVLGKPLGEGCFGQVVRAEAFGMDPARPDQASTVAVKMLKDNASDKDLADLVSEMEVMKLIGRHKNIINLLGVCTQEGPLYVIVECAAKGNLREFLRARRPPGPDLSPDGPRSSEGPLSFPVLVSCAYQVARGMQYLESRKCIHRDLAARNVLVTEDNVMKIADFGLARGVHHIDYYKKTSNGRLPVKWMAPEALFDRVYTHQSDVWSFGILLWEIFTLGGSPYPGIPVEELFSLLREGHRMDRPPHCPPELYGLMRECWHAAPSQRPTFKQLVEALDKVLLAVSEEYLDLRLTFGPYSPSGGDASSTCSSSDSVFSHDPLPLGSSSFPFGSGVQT

As for `Cc1cnc(Nc2ccc(N=S3(=O)CCN(C)CC3)cc2)nc1-c1c[nH]c2ccccc12` [Example 49, 4-(1H-Indol-3-yl)-5-methyl-N-[4-[(4-methyl-1-oxo-1,4-thiazinan-1-ylidene)amino]-phenyl]pyrimidin-2-amine], the Kd in assay [1] amounted to 1 nM; in assay [3], 4 nM; in assay [4], 8 nM; in assay [5], 0.12 µM; in assay [6], 8 nM. The IC50 in assay [2] is 78 nM; in assay [7] it was 189 nM.
With `Cc1cnc(Nc2ccc(N=S(C)(C)=O)nc2)nc1-c1c[nH]c2ccccc12` [Example 23, N-[6-[[dimethyl(oxo)-λ^6-sulfanylidene]amino]-3-pyridyl]-4-(1H-indol-3-yl)-5-methyl-pyrimidin-2-amine], the Kd is 1 nM in assay [1]; 6 nM in assay [3]; 12 nM in assay [4]; 0.13 µM in assay [5]; 8 nM in assay [6]. For the same compound, the IC50 came out at 118 nM in assay [2] and 132 nM in assay [7].
`C=CC(=O)Nc1ccc2c(ccn2-c2nc(Nc3ccc(N=S4(=O)CCN(C)CC4)cc3)ncc2Cl)c1` [Example 69, N-[1-[5-Chloro-2-[4-[(4-methyl-1-oxo-1,4-thiazinan-1-ylidene)amino]anilino]pyrimidin-4-yl]indol-5-yl]prop-2-enamide]: the dissociation constant (Kd) in assay [1] turned out to be 3.8 nM; in assay [3], 28 nM; in assay [4], 14 nM; in assay [5] it was 0.16 µM; in assay [6] it was 33 nM. For the same compound, the IC50 was determined as 82 nM in assay [2] and 14 nM in assay [7].
Consider `Cc1cnc(Nc2ccc(S(=N)(=O)C3CC3)cc2)nc1-c1c[nH]c2ccccc12` (centres unmarked) [Example 51, N-[4-(Cyclopropyl-sulfonimidoyl)-phenyl]-4-(1H-indol-3-yl)-5-methyl-pyrimidin-2-amine], for which the Kd in assay [1] turned out to be 3 nM; in assay [3] it was 6 nM; in assay [4] it was 18 nM; in assay [5] it was 0.13 µM; in assay [6], 10 nM. Moreover, the IC50 was 48 nM in assay [2] and 45 nM in assay [7].
As for `CN1CCS(=O)(=Nc2ccc(Nc3ncc(Cl)c(-c4c[nH]c5ccccc45)n3)cc2)CC1` [Example 55, 5-Chloro-4-(1H-indol-3-yl)-N-[4-[(4-methyl-1-oxo-1,4-thiazinan-l-ylidene)amino]-phenyl]pyrimidin-2-amine], the dissociation constant (Kd) in assay [1] worked out at 2 nM; in assay [3] it was 6 nM; in assay [4] it was 23 nM; in assay [5], 0.11 µM; in assay [6], 13 nM. The IC50 in assay [2] is 49 nM; in assay [7], 40 nM.
Take `CN(C)C/C=C/C(=O)Nc1ccc2c(ccn2-c2nc(Nc3ccc(N=S(C)(C)=O)cc3)ncc2Cl)c1` [Example 67, (E)-N-[1-[5-Chloro-2-[4-[[dimethyl(oxo)-λ^6-sulfanylidene]amino]anilino]-pyrimidin-4-yl]indol-5-yl]-4-(dimethylamino)but-2-enamide]: the Kd is 9.8 nM in assay [1]; 120 nM in assay [3]; 62 nM in assay [4]; 0.51 µM in assay [5]; 130 nM in assay [6]. Moreover, the results for the IC50 in assay [2] and in assay [7] were 421 nM and 1450 nM, respectively.
In the case of `COc1cc(N=S2(=O)CCN(C)CC2)ccc1Nc1ncc(Cl)c(-c2c[nH]c3ccccc23)n1` [Example 38, 5-Chloro-4-(1H-indol-3-yl)-N-[2-methoxy-4-[(4-methyl-1-oxo-1,4-thiazinan-1-ylidene)-amino]phenyl]pyrimidin-2-amine], the Kd in assay [1] worked out at 3 nM; in assay [3], 92 nM; in assay [4], 34 nM; in assay [5], 0.026 µM; in assay [6], 25 nM. Also, the IC50 is 119 nM in assay [2] and 130 nM in assay [7].
Consider `Cc1cnc(Nc2ccc(N=S(C)(C)=O)c(Cl)c2)nc1-c1c[nH]c2ccccc12` [Example 25, N-[3-chloro-4-[[dimethyl(oxo)-λ^6-sulfanylidene]amino]phenyl]-4-(1H-indol-3-yl)-5-methyl-pyrimidin-2-amine], for which the Kd in assay [1] turned out to be 2 nM; in assay [3], 9 nM; in assay [4], 13 nM; in assay [5], 0.089 µM; in assay [6] it was 7 nM. In addition, the IC50 in assay [2] came to 63 nM; in assay [7] it was 117 nM.
On to `C=CC(=O)Nc1cccc2c(-c3nc(Nc4ccc(S(C)(=N)=O)cc4)ncc3Cl)c[nH]c12` (centres unmarked) [Example 91, N-[3-[5-chloro-2-[4-(methylsulfonimidoyl)anilino]pyrimidin-4-yl]-1H-indol-7-yl]prop-2-enamide], for which the Kd in assay [1] was determined as 2 nM; in assay [3] it was 24 nM; in assay [4], 48 nM; in assay [5], 0.13 µM; in assay [6], 19 nM. The IC50 in assay [2] was determined as 48 nM; in assay [7] it was 19 nM.
For the compound `C=CC(=O)Nc1ccc2c(-c3nc(Nc4ccc(S(=N)(=O)C5CC5)cc4)ncc3Cl)c[nH]c2c1` (centres unmarked) [Example 90, N-[3-[5-Chloro-2-[4-(cyclopropylsulfonimidoyl)anilino]pyrimidin-4-yl]-1H-indol-6-yl]prop-2-enamide], the Kd in assay [1] is 4 nM; in assay [3], 59 nM; in assay [4] it was 41 nM; in assay [5] it was 0.36 µM; in assay [6] it was 47 nM. The IC50 in assay [2] amounted to 81 nM; in assay [7], 71 nM.
In the case of `Cc1cnc(Nc2ccc(N3CCS(=N)(=O)CC3)cc2)nc1-c1c[nH]c2ccccc12` [Example 54, N-[4-(1-Imino-1-oxo-1,4-thiazinan-4-yl)phenyl]-4-(1H-indol-3-yl)-5-methyl-pyrimidin-2-amine], the Kd in assay [1] turned out to be 2 nM; in assay [3], 7 nM; in assay [4], 13 nM; in assay [5] it was 0.1 µM; in assay [6] it was 10 nM. Further, the values for the IC50 in assay [2] and in assay [7] were 33 nM and 44 nM, respectively.

The values above are taken from US20230115945A1, “AMINOPYRIMIDINE COMPOUNDS” (TYRA BIOSCIENCES, INC., priority 2019, published 2023).
